Patent US4752612A, “Method and percutaneously administering physiologically active agents using an alcohol adjuvant and a solvent” (Nitto Electrical Industrial Co., Ltd., priority 1986, dated 1988)
Counter-ions that a name gives are not always drawn. Like-named read-outs stand apart in the source and are kept apart here.

Columns and labels:
[1] = Description: Rat full thickness skins were used in the diffusion cell method following the method of Michaels, AlChE Journal, 21 [5], 985-996, 1975. The rat skin was mounted in the diffusion cell in a vertical position between the upstream and the downstream compartments; the exposed area of the skin approximated 4.15 cm^2.
The skin was excised from the shaved abdominal site of male albino rats weighing 250~300 g, and washed with normal saline solution after the subcutaneous fat was carefully removed with scissors.
The active agent/PAEC solution of known concentration was added to the upper compartment of the cell, which was exposed to the epithelial side of the skin and a normal saline solution was placed in the lower compartment.
The penetration rate was studied in a thermostated bath at 30° C.
As an alternative, the finite dose technique of Franz, Curr. Probl. Dermatol., Vol. 7, p. 58~68 (Karger, Basel, 1978) can also be followed where the rat skin is mounted horizontally in a diffusion cell apparatus and the exposed area of the skin approximates 0.7 cm^2.
The active agent/PAEC solution of known concentration was added to the upstream compartment to which the epithelial side of the skin was exposed, and a normal saline solution was added to the downstream compartment.
Liquid compositions are prepared by firstly mixing Component A with Component B and then blending the active agent in the mixture. In the case that Component B is a solid at ambient temperature or will not homogenously mix with Component A, 20 wt.% of ethylene glycol monobutyl ether based on the weight of Components A and B can be used as an agent for assisting dissolution.
The flux of the active agent is given in terms of μg/cm^2 /8 hours. Twenty-five volume percent Component A with respect to Component A plus Component B volume was used in the composition along with 2.5 weight percent of the active agent. For purposes of comparison, in certain instances the results for solvents alone and adjuvants alone are given.
A propranolol system was formulated as follows: […] of propranolol was dissolved in 1 ml of 25 volume % dodecanol in N-methyl-2-pyrrolidone (based on total volume) and in 1 ml of ethyl alcohol as a comparison study.
In the following Example 8, in vitro transdermal penetration was again analyzed using rat full thickness skins following the method of Michaels, AIChE Journal, 21, [53], pp. 985-996 (1975), according to the procedure earlier described. The sample volume was 1 ml unless otherwise indicated and flux of the active agent is given in μg/cm^2 /8 hours. All percents are volume percents based on the total volume of the system unless otherwise indicated.

[2] = In vivo rhesus monkey test, plasma level after topical application; conditions: for concentration at 3 h / concentration at 5 h / concentration at 7 h: topical
Experimental: If desired, an in vivo rhesus monkey test as described below may also be used to determine the effect of the PAEC combinations of the present invention.
Male rhesus monkeys weighing 10-14 Kg each can be used as the subject. An appropriate area of the monkey's chest is shaved 24 hours before drug application.
Drug formulations comprising the PAEC are applied to a certain area of the chest. The monkey is restrained in a chair to prevent it from touching its chest.
Blood samples are taken at appropriate intervals after the application. The heparinized blood is centrifuged, and the plasma removed and stored at -20° C. until analyzed.
In the following Examples 15 and 16, the in vivo monkey regimen earlier described was used to determine the effect of the PAEC combinations of the present invention, the regimen being modified as follows:
Male rhesus monkeys weighting 8 to 13 Kg wee used as the subject and an appropriate area of the monkey's upper back was shaved 24 hours before drug application;
the drug formulations were applied to 49 cm^2 of the upper back of the monkey; and
plasma samples taken at appropriate intervals were analyzed by conventional HPLC.
1 ml of 25% 1-dodecanol and 75% MP containing 200 mg of propanolol was impregnated into a polyester non-woven cloth (49 cm^2; 230 mg) and applied to the upper back area of the monkey.
The application site was occluded with Saran® film.
The procedure of Example 15 was followed except for using Indomethacin, a NSAID, in place of propranolol.

rhesus monkey = assay: Pharmacological (behavioral) effect in animal model after percutaneous administration; type: in vivo; conditions: blood level approximately 100 ng/ml plasma

With `CCN(CC)CCNC(=O)c1cc(Cl)c(N)cc1OC` [Metoclopramide (free base)] the Flux [1] was 2694 μg/cm^2 /8 hrs.

In the case of `CC(C)Cc1ccc(C(C)C(=O)O)cc1` (stereo not drawn) [Ibuprofen, p-isobutylhydratropic acid<2',4'-isobutylphenyl propionic acid], the “flux (Ibuprofen)” value ([1]; (a) 25 mg + 1 ml of 25% 1-dodecanol and 75% N-methyl pyrrolidone) is reported as 307 μg/cm^2 /8 hours, the “flux (Ibuprofen)” value ([1]; (b) 25 mg + 1 ml of 25% 1-dodecanol in 75% N-methyl piperidone) is reported as 266 μg/cm^2 /8 hours and the “flux (Ibuprofen)” value ([1]; (c) 25 mg + 1 ml of 25% 1-dodecanol in 75% N-methyl caprolactum) is reported as 148 μg/cm^2 /8 hours.

In the case of `COc1ccc2c(c1)c(CC(=O)O)c(C)n2C(=O)c1ccc(Cl)cc1` [Indomethacin, 1-(p-chlorobenzoyl)-5-methoxy-2-methylindole-3-acetic acid], the “flux (Indomethacin)” value ([1]; (a) 25 mg + 1 ml of 25% linalool and 75% MP) is reported as 98 μg/cm^2 /8 hours, the “flux (Indomethacin)” value ([1]; (b) 25 mg + 1 ml of 25% 1-dodecanol and 75% MP) is reported as 236 μg/cm^2 /8 hours and the “flux (Indomethacin)” value ([1]; (c) 25 mg + 1 ml of 25% oleyl alcohol and 75% MP) is reported as 236 μg/cm^2 /8 hours. The “Plasma Level” value ([2]; rhesus monkey, in vivo, 60 min) was 0 ng/ml Plasma, the concentration at 3 h ([2]; rhesus monkey, in vivo) was 270 ng/mL and the concentration at 5 h ([2]; rhesus monkey, in vivo) was 495 ng/mL. For the same molecule, the concentration at 7 h ([2]; rhesus monkey, in vivo) was 336 ng/mL.

With `CC(C)NCC(O)COc1cccc2ccccc12` (stereo not drawn) [Propranolol] the “Plasma Level” value ([2]; 1 hr, 200 mg in 1 ml of 25% 1-dodecanol and 75% MP, 49 cm^2 upper back, occluded) was 0 ng/ml Plasma, the concentration at 3 h ([2]; rhesus monkey, plasma, 3 hr, 200 mg in 1 ml of 25% 1-dodecanol and 75% MP, 49 cm^2 upper back, occluded) was 55 ng/mL and the concentration at 5 h ([2]; rhesus monkey, plasma, 5 hr, 200 mg in 1 ml of 25% 1-dodecanol and 75% MP, 49 cm^2 upper back, occluded) was 85 ng/mL. It also gave a concentration at 7 h ([2]; rhesus monkey, plasma, 7 hr, 200 mg in 1 ml of 25% 1-dodecanol and 75% MP, 49 cm^2 upper back, occluded) of 80 ng/mL.

With `CN1C(=O)CN=C(c2ccccc2)c2cc(Cl)ccc21` [Diazepam, 7-Chloro-1,3-dihydro-1-methyl-5-phenyl-2H-1,4-benzodiazepine-2-one] the “pharmacological (behavioral) signs of therapeutic effectiveness” value (rhesus monkey) was “produces pharmacological (behavioral) signs of therapeutic effectiveness”.

Work on `CCN(CC)CCNC(=O)c1cc(Cl)c(N)cc1OC` [Metoclopramide HCl] yielded a Flux [1] of 3280 μg/cm^2 /8 hrs.

With `COC(=O)C1=C(C)NC(C)=C(C(=O)OC)C1c1ccccc1[N+](=O)[O-]` [Nifedipine, 1,4-dihydro-2,6-dimethyl-4-(2-nitrophenyl)-3,5-pyridine dicarboxylic acid dimethyl ester] the “flux (Nifedipine)” value ([1]; (a) 25 mg + 1 ml of 25% 1-dodecanol and 75% MP) was 480 μg/cm^2 /8 hours, the “flux (Nifedipine)” value ([1]; (b) 25 mg + 1 ml of 25% oleyl alcohol and 75% MP) was 394 μg/cm^2 /8 hours and the “flux (Nifedipine)” value ([1]; (c) 25 mg + 1 ml of 25% 2-octyl-1-dodecanol and 75% MP) was 246 μg/cm^2 /8 hours. The “flux (Nifedipine)” value ([1]; (d) control: 25 mg + 1 ml of MP) was 30 μg/cm^2 /8 hours.
